Results reported in patent publication US8957078B2, “Compounds useful as inhibitors of ATR kinase” (Vertex Pharmaceuticals Incorporated, priority 2013, dated 2015).

What was measured:
[1] = biological target: T1, ATR kinase (full-length ATR) (Homo sapiens, UniProt Q13535); assay: ATR Inhibition Assay (radioactive-phosphate incorporation); assay type: biochemical; details: Ki(app); 5 nM full-length ATR, 10 μM ATP, 800 μM target peptide, 25° C.
T1 construct: in the presence of 5 nM full-length ATR
Experimental: Compounds were screened for their ability to inhibit ATR kinase using a radioactive-phosphate incorporation assay. Assays were carried out in a mixture of 50 mM Tris/HCl (pH 7.5), 10 mM MgCl2 and 1 mM DTT. Final substrate concentrations were 10 μM [γ-33P]ATP (3 mCi 33P ATP/mmol ATP, Perkin Elmer) and 800 μM target peptide (ASELPASQPQPFSAKKK (SEQ. ID NO: 1)).
Assays were carried out at 25° C. in the presence of 5 nM full-length ATR. An assay stock buffer solution was prepared containing all of the reagents listed above, with the exception of ATP and the test compound of interest. 13.5 μL of the stock solution was placed in a 96 well plate followed by addition of 2 μL of DMSO stock containing serial dilutions of the test compound (typically starting from a final concentration of 15 μM with 3-fold serial dilutions) in duplicate (final DMSO concentration 7%). The plate was pre-incubated for 10 minutes at 25° C. and the reaction initiated by addition of 15 μL [γ-33P]ATP (final concentration 10 μM).
The reaction was stopped after […] by the addition of 30 μL 0.1M phosphoric acid containing 2 mM ATP. A multiscreen phosphocellulose filter 96-well plate (Millipore, Cat no. MAPHN0B50) was pretreated with 100 μL 0.2M phosphoric acid prior to the addition of 45 μL of the stopped assay mixture. The plate was washed with 5×200 μL 0.2M phosphoric acid. After drying, 100 μL Optiphase ‘SuperMix’ liquid scintillation cocktail (Perkin Elmer) was added to the well prior to scintillation counting (1450 Microbeta Liquid Scintillation Counter, Wallac).
After removing mean background values for all of the data points, Ki(app) data were calculated from non-linear regression analysis of the initial rate data using the Prism software package (GraphPad Prism version 3.0cx for Macintosh, GraphPad Software, San Diego Calif., USA).

[2] = test system: HCT116 colorectal cancer cells; assay: Cisplatin Sensitization Assay (96 h cell viability MTS); assay type: cell-based; details: concentration of compound required to reduce the IC50 of Cisplatin alone by at least 3-fold; HCT116, 96 h MTS
Experimental: Compounds can be screened for their ability to sensitize HCT116 colorectal cancer cells to Cisplatin using a 96 h cell viability (MTS) assay. […] Compounds and Cisplatin are then both added simultaneously to the cell media in 2-fold serial dilutions from a top final concentration of 10 μM as a full matrix of concentrations in a final cell volume of 200 μl, and the cells are then incubated at 37° C. in 5% CO2. After 96 h, 40 μl of MTS reagent (Promega G358a) is added to each well and the cells are incubated for 1 h at 37° C. in 5% CO2. Finally, absorbance is measured at 490 nm using a SpectraMax Plus 384 reader (Molecular Devices) and the concentration of compound required to reduce the IC50 of Cisplatin alone by at least 3-fold (to 1 decimal place) can be reported.

T1 sequence (Q13535 whole entry): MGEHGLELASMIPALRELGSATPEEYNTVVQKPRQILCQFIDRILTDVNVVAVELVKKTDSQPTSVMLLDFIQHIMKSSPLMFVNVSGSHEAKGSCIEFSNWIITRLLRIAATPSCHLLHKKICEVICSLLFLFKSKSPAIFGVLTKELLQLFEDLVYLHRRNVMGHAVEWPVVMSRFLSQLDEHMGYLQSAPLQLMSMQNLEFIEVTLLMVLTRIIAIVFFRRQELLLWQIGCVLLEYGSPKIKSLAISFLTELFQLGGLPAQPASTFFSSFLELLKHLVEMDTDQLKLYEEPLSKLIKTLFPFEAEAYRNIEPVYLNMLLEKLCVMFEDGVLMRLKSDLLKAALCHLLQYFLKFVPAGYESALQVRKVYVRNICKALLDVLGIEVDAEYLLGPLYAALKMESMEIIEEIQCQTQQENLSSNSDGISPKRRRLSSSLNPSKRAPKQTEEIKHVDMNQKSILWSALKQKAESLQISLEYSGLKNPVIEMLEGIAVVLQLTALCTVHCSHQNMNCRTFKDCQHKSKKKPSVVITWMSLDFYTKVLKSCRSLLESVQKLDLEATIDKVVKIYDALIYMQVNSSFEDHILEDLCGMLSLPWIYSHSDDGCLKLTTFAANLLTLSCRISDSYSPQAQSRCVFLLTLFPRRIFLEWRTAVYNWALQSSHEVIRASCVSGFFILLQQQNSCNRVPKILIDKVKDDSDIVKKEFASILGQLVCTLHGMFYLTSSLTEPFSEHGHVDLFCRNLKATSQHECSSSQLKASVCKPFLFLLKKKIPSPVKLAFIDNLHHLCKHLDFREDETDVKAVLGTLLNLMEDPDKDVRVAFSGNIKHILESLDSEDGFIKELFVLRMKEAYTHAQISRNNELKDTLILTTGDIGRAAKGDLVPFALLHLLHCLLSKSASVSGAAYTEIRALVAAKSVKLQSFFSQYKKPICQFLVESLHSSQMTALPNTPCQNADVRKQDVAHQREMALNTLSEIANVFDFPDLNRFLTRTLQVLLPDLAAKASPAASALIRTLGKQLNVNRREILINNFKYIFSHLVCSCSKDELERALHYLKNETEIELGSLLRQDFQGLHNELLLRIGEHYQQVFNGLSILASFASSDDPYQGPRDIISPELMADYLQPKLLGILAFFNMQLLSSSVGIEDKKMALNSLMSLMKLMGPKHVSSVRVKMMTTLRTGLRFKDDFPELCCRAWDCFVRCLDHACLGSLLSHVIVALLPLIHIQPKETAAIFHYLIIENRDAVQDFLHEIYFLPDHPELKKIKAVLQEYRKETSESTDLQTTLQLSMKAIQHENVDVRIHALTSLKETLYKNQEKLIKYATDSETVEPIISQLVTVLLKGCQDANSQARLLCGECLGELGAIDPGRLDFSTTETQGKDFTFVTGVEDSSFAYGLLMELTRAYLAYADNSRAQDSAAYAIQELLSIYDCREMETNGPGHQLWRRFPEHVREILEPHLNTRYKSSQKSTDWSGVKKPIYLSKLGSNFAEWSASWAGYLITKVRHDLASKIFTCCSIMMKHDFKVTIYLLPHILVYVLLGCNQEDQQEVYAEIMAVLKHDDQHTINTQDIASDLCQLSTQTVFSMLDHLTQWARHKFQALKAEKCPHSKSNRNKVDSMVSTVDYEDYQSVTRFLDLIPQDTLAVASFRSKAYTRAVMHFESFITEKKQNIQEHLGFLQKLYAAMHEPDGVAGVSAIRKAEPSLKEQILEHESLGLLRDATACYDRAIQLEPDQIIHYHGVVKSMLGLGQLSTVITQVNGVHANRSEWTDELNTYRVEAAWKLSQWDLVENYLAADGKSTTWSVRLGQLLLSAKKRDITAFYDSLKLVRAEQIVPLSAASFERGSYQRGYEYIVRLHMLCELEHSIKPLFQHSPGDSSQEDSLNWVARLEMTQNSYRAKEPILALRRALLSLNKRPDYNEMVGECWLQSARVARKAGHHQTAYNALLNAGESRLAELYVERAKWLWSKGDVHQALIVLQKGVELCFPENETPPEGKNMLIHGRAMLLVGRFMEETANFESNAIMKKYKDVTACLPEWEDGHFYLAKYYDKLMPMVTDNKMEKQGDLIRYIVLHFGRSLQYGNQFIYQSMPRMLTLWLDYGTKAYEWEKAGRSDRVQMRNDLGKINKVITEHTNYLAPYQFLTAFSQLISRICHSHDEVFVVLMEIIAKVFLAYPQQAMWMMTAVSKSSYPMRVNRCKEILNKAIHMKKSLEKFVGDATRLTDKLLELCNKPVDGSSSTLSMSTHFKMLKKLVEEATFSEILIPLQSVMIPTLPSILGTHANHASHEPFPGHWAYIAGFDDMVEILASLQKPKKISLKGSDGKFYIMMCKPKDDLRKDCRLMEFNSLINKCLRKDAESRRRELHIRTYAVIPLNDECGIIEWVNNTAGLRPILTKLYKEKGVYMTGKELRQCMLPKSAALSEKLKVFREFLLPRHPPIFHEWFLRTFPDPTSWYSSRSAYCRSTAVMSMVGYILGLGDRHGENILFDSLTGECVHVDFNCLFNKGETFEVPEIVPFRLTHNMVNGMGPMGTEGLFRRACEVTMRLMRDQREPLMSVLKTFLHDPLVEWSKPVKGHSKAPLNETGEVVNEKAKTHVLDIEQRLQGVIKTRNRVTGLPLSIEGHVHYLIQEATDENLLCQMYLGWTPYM

SMILES	Ki [1] [nM]	Cisplatin Sensitization Assay [2]
Nc1nn2cc(F)cnc2c1C(=O)Nc1cncnc1O[C@H]1C[C@]2(CCN2)C1 [I-A-18, N-(4-((4s,6r)-1-azaspiro[3.3]heptan-6-yloxy)pyrimidin-5-yl)-2-amino-6-fluoropyrazolo[1,5-a]pyrimidine-3-carboxamide]	1000 to 5000	+ (Compounds with a Cisplatin sensitization value >0.2 μM but <5 μM are marked with “+.”)
Nc1nn2cc(F)cnc2c1C(=O)Nc1cncn1C1CCOCC1 [I-D-4, 2-amino-6-fluoro-N-(1-(tetrahydro-2H-pyran-4-yl)-1H-imidazol-5-yl)pyrazolo[1,5-a]pyrimidine-3-carboxamide]	10 to 1000	++ (Compounds with a Cisplatin sensitization value >0.02 μM but <0.2 μM are marked with “++.”)
CC(C)Oc1ncncc1NC(=O)c1c(N)nn2ccc(OCCN(C)C)nc12 [I-A-15, 2-amino-5-(2-(dimethylamino)ethoxy)-N-(4-isopropoxypyrimidin-5-yl)pyrazolo[1,5-a]pyrimidine-3-carboxamide]	1000 to 5000	+ (Compounds with a Cisplatin sensitization value >0.2 μM but <5 μM are marked with “+.”)
Cc1nsc(NC(=O)c2c(N)nn3cc(F)cnc23)c1-c1cncn1C [I-E-6, 2-amino-6-fluoro-N-(3-methyl-4-(1-methyl-1H-imidazol-5-yl)isothiazol-5-yl)pyrazolo[1,5-a]pyrimidine-3-carboxamide]	10 to 1000	+++ (Compounds with a Cisplatin sensitization value of <0.02 μM are marked with “+++.”)
CN1CC[C@H](Oc2ncncc2NC(=O)c2c(N)nn3cc(F)cnc23)C1 [I-A-11, (S)-2-amino-6-fluoro-N-(4-((1-methylpyrrolidin-3-yl)oxy)pyrimidin-5-yl)pyrazolo[1,5-a]pyrimidine-3-carboxamide]	1000 to 5000	++ (Compounds with a Cisplatin sensitization value >0.02 μM but <0.2 μM are marked with “++.”)
CN1CCN(C(=O)C2CCN(c3cnncc3NC(=O)c3c(N)nn4cc(F)cnc34)CC2)CC1 [I-B-5, 2-amino-6-fluoro-N-(5-(4-(4-methylpiperazine-1-carbonyl)piperidin-1-yl)pyridazin-4-yl)pyrazolo[1,5-a]pyrimidine-3-carboxamide]	10 to 1000	++ (Compounds with a Cisplatin sensitization value >0.02 μM but <0.2 μM are marked with “++.”)
Nc1nn2cc(F)cnc2c1C(=O)Nc1cnncc1N1CCN(C2CCOCC2)CC1 [I-B-3, 2-amino-6-fluoro-N-(5-(4-(tetrahydro-2H-pyran-4-yl)piperazin-1-yl)pyridazin-4-yl)pyrazolo[1,5-a]pyrimidine-3-carboxamide]	10 to 1000	++ (Compounds with a Cisplatin sensitization value >0.02 μM but <0.2 μM are marked with “++.”)
Cc1nsc(NC(=O)c2c(N)nn3cc(F)cnc23)c1C1=CCOCC1 [I-E-4, 2-amino-N-(4-(3,6-dihydro-2H-pyran-4-yl)-3-methylisothiazol-5-yl)-6-fluoropyrazolo[1,5-a]pyrimidine-3-carboxamide]	< 10	+++ (Compounds with a Cisplatin sensitization value of <0.02 μM are marked with “+++.”)
CN(C)[C@H]1CC[C@H](Oc2ncncc2NC(=O)c2c(N)nn3ccc(C(F)(F)F)nc23)CC1 [I-A-13, 2-amino-N-(4-(((1r,4r)-4-(dimethylamino)cyclohexyl)oxy)pyrimidin-5-yl)-5-(trifluoromethyl)pyrazolo[1,5-a]pyrimidine-3-carboxamide]	10 to 1000	++ (Compounds with a Cisplatin sensitization value >0.02 μM but <0.2 μM are marked with “++.”)
CN1CCC(Oc2ncncc2NC(=O)c2c(N)nn3cc(F)cnc23)CC1 [I-A-5, 2-amino-6-fluoro-N-(4-((1-methylpiperidin-4-yl)oxy)pyrimidin-5-yl)pyrazolo[1,5-a]pyrimidine-3-carboxamide]	10 to 1000	++ (Compounds with a Cisplatin sensitization value >0.02 μM but <0.2 μM are marked with “++.”)
COCc1c(C)nsc1NC(=O)c1c(N)nn2cc(F)cnc12 [I-E-20, 2-amino-6-fluoro-N-(4-(methoxymethyl)-3-methylisothiazol-5-yl)pyrazolo[1,5-a]pyrimidine-3-carboxamide]	10 to 1000	+++ (Compounds with a Cisplatin sensitization value of <0.02 μM are marked with “+++.”)
Nc1nn2cc(F)cnc2c1C(=O)Nc1cnncc1N1CCC(C(=O)N2CC(F)(F)C2)CC1 [I-B-21, 2-amino-N-(5-(4-(3,3-difluoroazetidine-1-carbonyl)piperidin-1-yl)pyridazin-4-yl)-6-fluoropyrazolo[1,5-a]pyrimidine-3-carboxamide]	10 to 1000	+++ (Compounds with a Cisplatin sensitization value of <0.02 μM are marked with “+++.”)
CC(C)(C)N1CCN(C(=O)C2CCN(c3cnncc3NC(=O)c3c(N)nn4cc(F)cnc34)CC2)CC1 [I-B-10, 2-amino-N-(5-(4-(4-(tert-butyl)piperazine-1-carbonyl)piperidin-1-yl)pyridazin-4-yl)-6-fluoropyrazolo[1,5-a]pyrimidine-3-carboxamide]	10 to 1000	++ (Compounds with a Cisplatin sensitization value >0.02 μM but <0.2 μM are marked with “++.”)
Cc1cnccc1-c1cnccc1NC(=O)c1c(N)nn2cc(F)cnc12 [I-C-6, 2-amino-6-fluoro-N-(3′-methyl-[3,4′-bipyridin]-4-yl)pyrazolo[1,5-a]pyrimidine-3-carboxamide]	10 to 1000	++ (Compounds with a Cisplatin sensitization value >0.02 μM but <0.2 μM are marked with “++.”)
Nc1nn2cc(F)cnc2c1C(=O)Nc1cncn1C1CC1 [I-D-3, 2-amino-N-(1-cyclopropyl-1H-imidazol-5-yl)-6-fluoropyrazolo[1,5-a]pyrimidine-3-carboxamide]	10 to 1000	+++ (Compounds with a Cisplatin sensitization value of <0.02 μM are marked with “+++.”)
Cc1nsc(NC(=O)c2c(N)nn3cc(F)cnc23)c1-c1ccnn1C [I-E-8]	10 to 1000	+++ (Compounds with a Cisplatin sensitization value of <0.02 μM are marked with “+++.”)
Cc1nsc(NC(=O)c2c(N)nn3cc(F)cnc23)c1C1CC1 [I-E-2, 2-amino-N-(4-cyclopropyl-3-methylisothiazol-5-yl)-6-fluoropyrazolo[1,5-a]pyrimidine-3-carboxamide]	10 to 1000	+++ (Compounds with a Cisplatin sensitization value of <0.02 μM are marked with “+++.”)
Cc1nsc(NC(=O)c2c(N)nn3cc(F)cnc23)c1CN1CCCC1 [I-E-17, 2-amino-6-fluoro-N-(3-methyl-4-(pyrrolidin-1-ylmethyl)isothiazol-5-yl)pyrazolo[1,5-a]pyrimidine-3-carboxamide]	< 10	+++ (Compounds with a Cisplatin sensitization value of <0.02 μM are marked with “+++.”)
N#CCc1cnc2c(C(=O)Nc3cncn3Cc3ccccc3)c(N)nn2c1 [I-D-1, 2-amino-N-(1-benzyl-1H-imidazol-5-yl)-6-(cyanomethyl)pyrazolo[1,5-a]pyrimidine-3-carboxamide]	< 10	+++ (Compounds with a Cisplatin sensitization value of <0.02 μM are marked with “+++.”)
Cc1nsc(NC(=O)c2c(N)nn3cc(F)cnc23)c1-c1cccnc1 [I-E-3, 2-amino-6-fluoro-N-(3-methyl-4-(pyridin-3-yl)isothiazol-5-yl)pyrazolo[1,5-a]pyrimidine-3-carboxamide]	10 to 1000	+++ (Compounds with a Cisplatin sensitization value of <0.02 μM are marked with “+++.”)
Nc1nn2cc(F)cnc2c1C(=O)Nc1cncn1-c1cccnc1 [I-D-5, 2-amino-6-fluoro-N-(1-(pyridin-3-yl)-1H-imidazol-5-yl)pyrazolo[1,5-a]pyrimidine-3-carboxamide]	10 to 1000	++ (Compounds with a Cisplatin sensitization value >0.02 μM but <0.2 μM are marked with “++.”)
